From PMC10974507, “Design, Synthesis, Biological Evaluation and Molecular Docking of Novel F-18-Labeled Focal Adhesion Kinase Inhibitors as Potential Tumor Radiotracers” (Molecules, 2024)

Legend:
[1] = tested on: mice bearing S-180 tumors; experiment: Biodistribution in S-180 tumor-bearing mice; type: in vivo, Kunming mice; details: for Biodistribution, Blood / Biodistribution, Bone / Biodistribution, Brine / Biodistribution, Heart / Biodistribution, Kidney / Biodistribution, Large intestine / Biodistribution, Liver / Biodistribution, Lung / Biodistribution, Muscle / Biodistribution, Small intestine / Biodistribution, Spleen / Biodistribution, Stomach / Biodistribution, Tumor (tumor uptake): mean ± SD, n = 3; for Biodistribution, Tumor (tumor uptake): S-180 tumor
Description: Kunming mice (female, 18−22 g) and S180 ascites mice were purchased from Beijing Xinglong Animal Technology Co., Ltd., Beijing, China and Beijing Vital River Animal Technology Co., Ltd., Beijing, China, respectively. All the mice-concerned experiments were conducted in strict accordance with the “Guidelines for Humane Treatment of Laboratory Animals”, and the whole process was approved by the Animal Protection Committee of Beijing Normal University (Approval Code: BNUCC-EAW-2023-16; Approval date: 14 June 2023). The specific experimental operations were in accordance with those methods described previously.

[2] = Octanol/water partition coefficient determination; type: physicochemical; details: pH 7.4, read-out: logD7.4
Description: The partition coefficients of the radiotracers [^18F]7a and [^18F]7c were determined to evaluate the octanol/water partition properties.
(§1) The FAK kinase inhibition test and the partition coefficient test were conducted according to a previously reported method.

[3] = biological target: FAK (Homo sapiens, UniProt Q05397); experiment: FAK inhibitory assay (homogeneous time-resolved fluorescence kinase assay); type: biochemical; details: in vitro enzyme activity against FAK
Description: The inhibitory activities of the 7a–7c against FAK were tested using a homogeneous time-resolved fluorescence methodology-based kinase assay.
as §1

[4] = 30 min after intravenous injection
[5] = 60 min after intravenous injection
[6] = 120 min after intravenous injection

FAK, sequence (Q05397 whole entry, species assumed): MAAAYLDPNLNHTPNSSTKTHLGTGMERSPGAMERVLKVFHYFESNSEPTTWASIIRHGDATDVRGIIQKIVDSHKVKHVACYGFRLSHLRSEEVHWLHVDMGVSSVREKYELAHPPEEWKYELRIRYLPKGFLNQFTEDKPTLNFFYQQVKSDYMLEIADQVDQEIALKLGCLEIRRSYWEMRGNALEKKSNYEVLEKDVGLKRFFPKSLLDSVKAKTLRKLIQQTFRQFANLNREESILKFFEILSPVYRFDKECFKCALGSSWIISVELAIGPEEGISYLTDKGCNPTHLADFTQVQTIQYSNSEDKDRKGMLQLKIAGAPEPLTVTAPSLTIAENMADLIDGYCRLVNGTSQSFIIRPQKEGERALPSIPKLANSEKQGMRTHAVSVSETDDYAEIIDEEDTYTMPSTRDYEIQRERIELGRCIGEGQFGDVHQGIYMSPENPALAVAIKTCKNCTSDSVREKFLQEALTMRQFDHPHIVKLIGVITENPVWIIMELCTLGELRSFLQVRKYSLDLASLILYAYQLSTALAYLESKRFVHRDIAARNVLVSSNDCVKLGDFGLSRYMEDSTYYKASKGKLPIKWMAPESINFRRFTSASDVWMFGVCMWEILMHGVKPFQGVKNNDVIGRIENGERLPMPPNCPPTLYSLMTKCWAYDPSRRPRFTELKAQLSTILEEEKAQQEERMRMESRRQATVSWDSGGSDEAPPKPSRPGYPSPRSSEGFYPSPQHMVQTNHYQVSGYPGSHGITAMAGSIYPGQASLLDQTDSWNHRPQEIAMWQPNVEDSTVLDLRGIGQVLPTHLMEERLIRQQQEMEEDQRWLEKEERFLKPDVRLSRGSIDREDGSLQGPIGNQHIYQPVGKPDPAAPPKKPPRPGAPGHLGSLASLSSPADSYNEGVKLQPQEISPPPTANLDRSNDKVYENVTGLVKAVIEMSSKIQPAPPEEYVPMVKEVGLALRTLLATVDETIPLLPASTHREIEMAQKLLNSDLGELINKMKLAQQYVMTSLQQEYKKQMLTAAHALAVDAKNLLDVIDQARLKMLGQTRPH

In the case of CNC(=O)c1cc(N2CCS(=O)(=O)CC2)ccc1Nc1nc(Nc2ccc(OCCOCCOCC[18F])c(-c3cnn(C)c3)c2)ncc1Br [[^18F]7c], the Tumor/blood ratio [1, 4] is reported as 2.40, the Tumor/muscle ratio [1, 4] is reported as 1.88 and the “Biodistribution, Blood” value [1, 4] is reported as 2.74 ± 0.11 % ID/g. For the same compound, the “Biodistribution, Bone” value [1, 4] was 4.12 ± 0.39 % ID/g, the “Biodistribution, Brine” value [1, 4] was 2.81 ± 0.06 % ID/g and the “Biodistribution, Heart” value [1, 4] was 3.46 ± 0.65 % ID/g. For the same compound, the “Biodistribution, Kidney” value [1, 4] was 4.00 ± 0.25 % ID/g, the “Biodistribution, Large intestine” value [1, 4] was 6.18 ± 0.60 % ID/g and the “Biodistribution, Liver” value [1, 4] was 17.64 ± 4.45 % ID/g. For the same compound, the “Biodistribution, Lung” value [1, 4] was 120.47 ± 15.08 % ID/g, the “Biodistribution, Muscle” value [1, 4] was 3.50 ± 0.18 % ID/g and the “Biodistribution, Small intestine” value [1, 4] was 13.02 ± 1.93 % ID/g. For the same compound, the “Biodistribution, Spleen” value [1, 4] was 16.32 ± 1.26 % ID/g, the “Biodistribution, Stomach” value [1, 4] was 5.81 ± 1.02 % ID/g and the Tumor/blood ratio [1, 5] was 1.71. For the same compound, the Tumor/muscle ratio [1, 5] was 2.09, the “Biodistribution, Blood” value [1, 5] was 3.43 ± 0.04 % ID/g and the “Biodistribution, Bone” value [1, 5] was 4.86 ± 0.30 % ID/g. For the same compound, the “Biodistribution, Brine” value [1, 5] was 3.12 ± 0.66 % ID/g, the “Biodistribution, Heart” value [1, 5] was 2.53 ± 0.56 % ID/g and the “Biodistribution, Kidney” value [1, 5] was 3.82 ± 0.44 % ID/g. The “Biodistribution, Large intestine” value [1, 5] was 4.47 ± 0.44 % ID/g, the “Biodistribution, Liver” value [1, 5] was 19.21 ± 3.81 % ID/g and the “Biodistribution, Lung” value [1, 5] was 128.13 ± 6.74 % ID/g. For the same compound, the “Biodistribution, Muscle” value [1, 5] was 2.80 ± 0.49 % ID/g, the “Biodistribution, Small intestine” value [1, 5] was 5.73 ± 0.82 % ID/g and the “Biodistribution, Spleen” value [1, 5] was 8.48 ± 0.10 % ID/g. For the same compound, the “Biodistribution, Stomach” value [1, 5] was 1.14 ± 0.16 % ID/g, the Tumor/blood ratio [1, 6] was 1.37 and the Tumor/muscle ratio [1, 6] was 2.16. The “Biodistribution, Blood” value [1, 6] was 3.79 ± 0.46 % ID/g, the “Biodistribution, Bone” value [1, 6] was 10.70 ± 1.01 % ID/g and the “Biodistribution, Brine” value [1, 6] was 2.01 ± 0.18 % ID/g. The “Biodistribution, Heart” value [1, 6] was 3.12 ± 0.25 % ID/g, the “Biodistribution, Kidney” value [1, 6] was 3.50 ± 0.37 % ID/g and the “Biodistribution, Large intestine” value [1, 6] was 48.07 ± 9.85 % ID/g. The “Biodistribution, Liver” value [1, 6] was 28.36 ± 5.74 % ID/g, the “Biodistribution, Lung” value [1, 6] was 125.29 ± 16.25 % ID/g and the “Biodistribution, Muscle” value [1, 6] was 2.04 ± 0.12 % ID/g. The “Biodistribution, Small intestine” value [1, 6] was 7.49 ± 1.46 % ID/g, the “Biodistribution, Spleen” value [1, 6] was 24.70 ± 4.31 % ID/g and the “Biodistribution, Stomach” value [1, 6] was 3.32 ± 0.31 % ID/g. For the same compound, the “Biodistribution, Tumor (tumor uptake)” value [1, 4] was 6.58 ± 0.46 % ID/g, the “Biodistribution, Tumor (tumor uptake)” value [1, 5] was 5.85 ± 0.28 % ID/g and the “Biodistribution, Tumor (tumor uptake)” value [1, 6] was 5.18 ± 0.68 % ID/g. For the same compound, the logD [2] was 0.74.
For CNC(=O)c1cc(N2CCS(=O)(=O)CC2)ccc1Nc1nc(Nc2ccc(OCCOCCOCC[18F])cc2)ncc1Br [[^18F]7a], the Tumor/blood ratio [1, 4] was 1.34, the Tumor/muscle ratio [1, 4] was 0.80 and the “Biodistribution, Blood” value [1, 4] was 0.98 ± 0.26 % ID/g. The “Biodistribution, Bone” value [1, 4] was 2.32 ± 0.45 % ID/g, the “Biodistribution, Brine” value [1, 4] was 0.57 ± 0.08 % ID/g and the “Biodistribution, Heart” value [1, 4] was 3.05 ± 0.29 % ID/g. For the same compound, the “Biodistribution, Kidney” value [1, 4] was 3.02 ± 1.70 % ID/g, the “Biodistribution, Large intestine” value [1, 4] was 1.46 ± 0.13 % ID/g and the “Biodistribution, Liver” value [1, 4] was 23.49 ± 4.29 % ID/g. For the same compound, the “Biodistribution, Lung” value [1, 4] was 33.55 ± 5.59 % ID/g, the “Biodistribution, Muscle” value [1, 4] was 1.63 ± 0.34 % ID/g and the “Biodistribution, Small intestine” value [1, 4] was 2.95 ± 0.17 % ID/g. For the same compound, the “Biodistribution, Spleen” value [1, 4] was 5.43 ± 1.12 % ID/g, the “Biodistribution, Stomach” value [1, 4] was 0.92 ± 0.28 % ID/g and the Tumor/blood ratio [1, 5] was 1.45. The Tumor/muscle ratio [1, 5] was 0.56, the “Biodistribution, Blood” value [1, 5] was 0.96 ± 0.10 % ID/g and the “Biodistribution, Bone” value [1, 5] was 2.96 ± 0.43 % ID/g. The “Biodistribution, Brine” value [1, 5] was 1.08 ± 0.13 % ID/g, the “Biodistribution, Heart” value [1, 5] was 1.12 ± 0.03 % ID/g and the “Biodistribution, Kidney” value [1, 5] was 1.47 ± 0.18 % ID/g. The “Biodistribution, Large intestine” value [1, 5] was 1.36 ± 0.36 % ID/g, the “Biodistribution, Liver” value [1, 5] was 23.16 ± 2.65 % ID/g and the “Biodistribution, Lung” value [1, 5] was 28.77 ± 5.72 % ID/g. The “Biodistribution, Muscle” value [1, 5] was 2.50 ± 0.59 % ID/g, the “Biodistribution, Small intestine” value [1, 5] was 1.58 ± 0.35 % ID/g and the “Biodistribution, Spleen” value [1, 5] was 2.53 ± 0.21 % ID/g. For the same compound, the “Biodistribution, Stomach” value [1, 5] was 0.80 ± 0.21 % ID/g, the Tumor/blood ratio [1, 6] was 0.89 and the Tumor/muscle ratio [1, 6] was 4.30. For the same compound, the “Biodistribution, Blood” value [1, 6] was 0.92 ± 0.15 % ID/g, the “Biodistribution, Bone” value [1, 6] was 1.27 ± 0.42 % ID/g and the “Biodistribution, Brine” value [1, 6] was 0.16 ± 0.01 % ID/g. The “Biodistribution, Heart” value [1, 6] was 0.85 ± 0.09 % ID/g, the “Biodistribution, Kidney” value [1, 6] was 1.16 ± 0.06 % ID/g and the “Biodistribution, Large intestine” value [1, 6] was 4.5 ± 1.91 % ID/g. For the same compound, the “Biodistribution, Liver” value [1, 6] was 8.86 ± 3.14 % ID/g, the “Biodistribution, Lung” value [1, 6] was 11.63 ± 1.25 % ID/g and the “Biodistribution, Muscle” value [1, 6] was 0.20 ± 0.03 % ID/g. For the same compound, the “Biodistribution, Small intestine” value [1, 6] was 0.96 ± 0.29 % ID/g, the “Biodistribution, Spleen” value [1, 6] was 5.58 ± 1.06 % ID/g and the “Biodistribution, Stomach” value [1, 6] was 1.16 ± 0.40 % ID/g. The “Biodistribution, Tumor (tumor uptake)” value [1, 4] was 1.31 ± 0.07 % ID/g, the “Biodistribution, Tumor (tumor uptake)” value [1, 5] was 1.39 ± 0.30 % ID/g and the “Biodistribution, Tumor (tumor uptake)” value [1, 6] was 0.86 ± 0.34 % ID/g. The logD [2] was 0.96.
An IC50 [3] of 1970 nM was found for CNC(=O)c1cc(N2CCN(C(C)=O)CC2)ccc1Nc1nc(Nc2ccc(OCCOCCOCCF)c(C(=O)N3CCOCC3)c2)ncc1Br [Compound 7d, 5-(4-acetylpiperazin-1-yl)-2-((5-bromo-2-((4-(2-(2-(2-fluoroethoxy)ethoxy)ethoxy)-3-(morpholine-4-carbonyl)phenyl)amino)pyrimidin-4-yl)amino)-N-methylbenzamide] in this work.
An IC50 [3] of 643 nM was found for CNC(=O)c1cc(N2CCN(C(C)=O)CC2)ccc1Nc1nc(Nc2ccc(OCCOCCOCCF)c(-c3cnn(C)c3)c2)ncc1Br [Compound 7e, 5-(4-acetylpiperazin-1-yl)-2-((5-bromo-2-((4-(2-(2-(2-fluoroethoxy)ethoxy)ethoxy)-3-(1-methyl-1H-pyrazol-4-yl)phenyl)amino)pyrimidin-4-yl)amino)-N-methylbenzamide] in this work.
An IC50 [3] of 24.6 nM was found for CNC(=O)c1cc(N2CCS(=O)(=O)CC2)ccc1Nc1nc(Nc2ccc(OCCOCCOCCF)c(C(=O)N3CCN(C(C)=O)CC3)c2)ncc1Br [Compound 7b, 2-((2-((3-(4-acetylpiperazine-1-carbonyl)-4-(2-(2-(2-fluoroethoxy)ethoxy)ethoxy)phenyl)amino)-5-bromopyrimidin-4-yl)amino)-5-(1,1-dioxidothiomorpholino)-N-methylbenzamide] in this work.
An IC50 [3] of 10 nM was found for CNC(=O)c1cc(N2CCOCC2)ccc1Nc1nc(Nc2ccc(OCCOCCOCCF)c(C(=O)N3CCN(C(C)=O)CC3)c2)ncc1Br [Compound 7f] in this work.
With CNC(=O)c1cc(N2CCS(=O)(=O)CC2)ccc1Nc1nc(Nc2ccc(OCCOCCOCCF)c(-c3cnn(C)c3)c2)ncc1Br [Compound 7c, 2-((5-bromo-2-((4-(2-(2-(2-fluoroethoxy)ethoxy)ethoxy)-3-(1-methyl-1H-pyrazol-4-yl)phenyl)amino)pyrimidin-4-yl)amino)-5-(1,1-dioxidothiomorpholino)-N-methylbenzamide] the “Biodistribution, Tumor (tumor uptake)” value [1, 4] was 6.58 ± 0.46 % ID/g and the IC50 [3] was 1.27 nM.
An IC50 [3] of 5.59 nM was found for CNC(=O)c1cc(N2CCS(=O)(=O)CC2)ccc1Nc1nc(Nc2ccc(OCCOCCOCCF)cc2)ncc1Br [Compound 7a, 2-((5-bromo-2-((4-(2-(2-(2-fluoroethoxy)ethoxy)ethoxy)phenyl)amino)pyrimidin-4-yl)amino)-5-(1,1-dioxidothiomorpholino)-N-methylbenzamide] in this work.
An IC50 [3] of 1240 nM was found for CCN1CCN(c2ccc(Nc3nc(Nc4ccc(OCCOCCOCCF)c(-c5cnn(C)c5)c4)ncc3Br)c(C(=O)NC)c2)CC1 [Compound 7g, 2-((5-bromo-2-((4-(2-(2-(2-fluoroethoxy)ethoxy)ethoxy)-3-(1-methyl-1H-pyrazol-4-yl)phenyl)amino)pyrimidin-4-yl)amino)-5-(4-ethylpiperazin-1-yl)-N-methylbenzamide] in this work.
